Test results taken from patent publication US8128802B2, “Analysis apparatus and analysis method for glycosylated hemoglobin” (OJI Paper Co., Ltd, priority 2005, dated 2012).

Assays:
Assay type in all cases: biochemical
[1] = system: fructosyl amino acid oxidase; experiment: Characteristics of fructosyl amino acid oxidase-immobilized column (Example 5); conditions: sample concentration 10 mM; buffer pH 8.0, 37° C.
Protocol: FIG. 1 was the flow type assay apparatus with one flow path. The buffer A was pumped out from the buffer tank (1) using the pump (2), and a 5 μL portion of the sample was injected using the valve (4). The fructosyl amino acid oxidase-immobilized column was placed in the first immobilized enzyme column (17) and the electrode for hydrogen peroxide was placed downstream. The second immobilized enzyme column (19), the second electrode for hydrogen peroxide (20), the protease-immobilized column (14) and the flow type calorimeter (16) were not disposed. The injected sample transferred with the flowing buffer, passed through the mixing coil (15) in the incubator (13), and thus the sample temperature was adjusted and the sample was mixed with the buffer. The sample passed through the fructosyl amino acid oxidase-immobilized column (17) and the electrode for hydrogen peroxide (18), hydrogen peroxide was produced from fructosyl valine in the sample, and the change of the current was detected.
The composition of the buffer for this assay apparatus contained 100 mM phosphoric acid, 50 mM potassium chloride and 1 mM sodium azide, and its pH was 8.0.
The flow rate of the buffer was 1.0 mL/minute, and the temperature in the incubator was 37° C.
Using the assay apparatus 1 mentioned in (3), a 5 μL portion of fructosyl glycine was injected, and the characteristics of the fructosyl amino acid oxidase-immobilized column was examined.
When pH in the buffer was 7.0, 7.5, 8.0, 8.5 or 9.0, the activity in the oxidation of fructosyl glycine was measured.

[2] = system: fructosyl peptide oxidase; experiment: Substrate specificity of fructosyl peptide oxidase-immobilized column (Example 4); conditions: buffer A pH 7.0; normalized to 100 for the response to fructosyl valine; 30° C.
Protocol: In the same way as described in Example 1 (1), 150 mg of firebrick powder (30 to 60 meshes) was formylated. The solution (200 μL) of fructosyl peptide oxidase (140 units/mL, from Kikkoman Co.) in 100 mM sodium phosphate buffer (pH 7.0) was contacted with the formylated firebrick powder, and then incubated at 0 to 4° C. for one day for the enzyme immobilization.
In the assay apparatus shown in FIG. 1, the protease-immobilized column (14), the flow type calorimeter (16) and the first immobilized enzyme column (17) were not disposed, and the electrode for glucose was placed in the electrode for hydrogen peroxide (18), the fructosyl peptide oxidase-immobilized column in the second immobilized enzyme column (19), and the electrode for hydrogen peroxide in the electrode for hydrogen peroxide (20). The buffer A was pumped out from the buffer tank (1) by the pump (2), and a 5 μL portion of the sample was injected using the valve (4). The injected sample transferred with the flowing buffer A, passed through the mixing coil (15) in the incubator (13), and thus the sample temperature was adjusted and the sample was mixed with the buffer. And then the sample passed through the downstream electrode for glucose (18), fructosyl peptide oxidase-immobilized column (19) and an electrode for hydrogen peroxide (20), hydrogen peroxide was produced from fructosyl valylhistidine in the sample, and the change of the current was detected.
The composition of the buffer A for the assay apparatus contained 100 mM phosphoric acid, 50 mM potassium chloride and 1 mM sodium azide, and its pH was 7.0.
(§1) The flow rate of the buffer was 1.0 mL/minute, and the temperature in the incubator was 30° C.
On fructosyl peptide oxidase-immobilized column, the substrate specificity for various fructosyl amino acids, fructosyl peptides, amino acids and sugars was examined using the assay apparatus mentioned in (4) when pH of the buffer A was 7.0. In the Table 4, the relative values were normalized to 100 for the response to fructosyl valine.

[3] = system: fructosyl peptide oxidase; experiment: Substrate specificity, pH profile and stability of fructosyl peptide oxidase-immobilized column (Example 1); conditions: for Relative activity (%) pH 6.0: buffer pH 6.0; for Relative activity (%) pH 6.0 / Relative activity (%) pH 7.0 / Relative activity (%) pH 8.0: normalized to 100 for the response to fructosyl valine at each pH, 30° C.; for Relative activity (%) pH 7.0: buffer pH 7.0; for Relative activity (%) pH 8.0: buffer pH 8.0
Protocol: Firebrick powder (150 mg, 30 to 60 meshes) was thoroughly dried, immersed in a 10% solution of γ-aminopropyltriethoxysilane in anhydrous toluene for one hour, then thoroughly washed with anhydrous toluene and dried. The aminosilane-modified support was immersed in a 5% aqueous glutaraldehyde solution for one hour, and then thoroughly washed with distilled water, followed by substitution with 100 mM sodium phosphate buffer (pH 7.0). The buffer was removed as far as possible. A solution ([…]) of fructosyl peptide oxidase (140 units/mL, from Kikkoman Co.) in 100 mM sodium phosphate buffer (pH 7.0) was contacted with the formylated firebrick powder, and then incubated at 0 to 4° C. for one day for the enzyme immobilization. The support immobilized enzyme was packed into a column (internal diameter: 3.5 mm, length: 30 mm) to give the fructosyl peptide oxidase-immobilized column.
The buffer was pumped out from a buffer tank (1) using a pump (2), and 5 μL of a sample was injected using a valve (4). A protease-immobilized column (14), a flow type calorimeter (16), a second immobilized enzyme column (19) and a second electrode for hydrogen peroxide (20) were not placed, and a fructosyl peptide oxidase-immobilized column was placed as a first immobilized enzyme column (17), followed by an electrode for hydrogen peroxide (18) downstream thereof. The injected sample transferred with the flowing buffer, passed through a mixing coil (15) inside an incubator (13), and thus the sample temperature was adjusted and the sample was mixed with the buffer. The sample passed through the fructosyl peptide oxidase-immobilized column (17) and the electrode for hydrogen peroxide (18) to produce hydrogen peroxide from fructosyl valylhistidine in the sample, and then the change of the current was detected.
A composition of the buffer used in this assay apparatus contained 100 mM phosphoric acid, 50 mM potassium chloride and 1 mM sodium azide, and its pH was 7.0.
as §1
Using the assay apparatus described in (3), a 5 μL portion of fructosyl glycine, fructosyl valine or fructosyl valylhistidine was injected, and the characteristics of the fructosyl peptide oxidase-immobilized column was examined.
When pH of the buffer was 6.0, 7.0 or 8.0, the assay results of the activity for the oxidation of fructosyl glycine (FG), fructosyl valine (FV) or fructosyl valylhistidine (FVH) were shown in FIG. 3. For fructosyl glycine the activity was high at pH 8.0, but the activity at pH 6.0 was decreased to about 50% of that at pH 8.0. For fructosyl valine and fructosyl valylhistidine, the activity was high at pH 6.0 and 7.0.
Response values in Table 1 were normalized to 100 for the response to fructosyl valine at each pH.

[4] = system: fructosyl amino acid oxidase; experiment: Substrate specificity of fructosyl amino acid oxidase-immobilized column (Example 3); conditions: buffers pH 8.0; for Relative response value: normalized to 100 for the response to fructosyl glycine, 37° C., dialysis module
From the text: The buffer was removed as far as possible. […] The support immobilized enzyme was packed into the column (internal diameter: 3.5 mm, length: 30 mm) to give the fructosyl amino acid oxidase-immobilized column. In the assay apparatus shown in FIG. 2, the flow type calorimeter (16), the protease-immobilized column (14) and the first immobilized enzyme column (17) were not disposed, and the electrode for glucose was placed in the electrode for hydrogen peroxide (18), the fructosyl amino acid oxidase-immobilized column in the second immobilized enzyme column (19), and the electrode for hydrogen peroxide in the electrode for hydrogen peroxide (20). The buffer B was pumped out from the buffer tank (24) using the pump (25), and a 100 μL portion of the sample was injected using the valve (4). […] Since the buffer A was pumped out from the buffer tank (1) by the pump (2), the components with low molecular weight in the sample dialyzed in the dialysis module (27) passed through the electrode for glucose (18), the fructosyl amino acid oxidase-immobilized column (19) and the electrode for hydrogen peroxide (20), and hydrogen peroxide from glucose and fructosyl amino acid in the sample was detected. […] The temperature in the incubator was 37° C. The substrate specificity of fructosyl amino acid oxidase-immobilized column for various fructosyl amino acids, fructosyl peptides, amino acids and sugars was examined using the assay apparatus mentioned in (4) when pH of the buffers was 8.0.

Row | SMILES | Relative activity (%) [1] | Relative response value [2] | Relative activity (%) pH 6.0 [3] | Relative activity (%) pH 7.0 [3] | Relative activity (%) pH 8.0 [3] | Relative response value [4] | pH at which activity was maximized ([3]; buffer pH 6.0, 7.0 or 8.0 tested) | response of fructosyl amino acid oxidase-immobilized column [4]
1 | O=C(CO)[C@@H](O)[C@H](O)[C@H](O)CO [Fructose] | 1.0% | 0.0 | 0% | 0% | 0% | 0.0 |  | 
2 | NCCCC[C@H](N)C(=O)O [Lys] | 41.0% | 0.0 | 0% | 0% | 0% | 0.0 |  | 
3 | O=C(O)[C@@H]1CCCN1 [Pro] | 2.0% | 0.0 | 0% | 0% | 0% | 0.0 |  | 
4 | N[C@@H](Cc1ccccc1)C(=O)O [Phe] | 0.0% | 0.0 | 0% | 0% | 0% | 0.0 |  | 
5 | O=C[C@H](O)[C@@H](O)[C@@H](O)[C@H](O)CO [Galactose] | 0.0% | 0.0 | 0% | 0% | 0% | 0.0 |  | 
6 | CC(C)[C@H](NC1(CO)O[C@H](CO)[C@@H](O)[C@@H]1O)C(=O)N[C@@H](Cc1c[nH]cn1)C(=O)O (some centres unmarked) [Fructosyl valyl histidine] |  | 86.8 | 88% | 87% | 66% | 1.3 | 7.0 | scarcely responded
7 | OCC(O)CO [Glycerol] | 0.0% | 0.0 | 0% | 0% | 0% | 0.0 |  | 
8 | C[C@@H](O)[C@H](N)C(=O)O [Thr] | 2.0% | 0.0 | 0% | 0% | 0% | 0.0 |  | 
9 | NC(=O)C[C@H](N)C(=O)O [Asn] | 0.0% | 0.0 | 0% | 0% | 0% | 0.0 |  | 
10 | O=C[C@H](O)[C@@H](O)[C@H](O)CO [Xylose] | 0.0% | 0.0 | 0% | 0% | 0% | 0.0 |  | 
11 | N[C@@H](Cc1c[nH]cn1)C(=O)O [His] | 0.0% | 0.0 | 0% | 0% | 0% | 0.0 |  | 
12 | N[C@@H](Cc1c[nH]c2ccccc12)C(=O)O [Trp] | 13.0% | 0.0 | 0% | 0% | 0% | 0.0 |  | 
13 | CC(C)[C@H](N)C(=O)O [Val] | 0.0% | 0.0 | 0% | 0% | 0% | 0.0 |  | 
14 | N[C@@H](CS)C(=O)O [Cys] | 507.0% |  |  |  |  |  |  | 
15 | N[C@@H](CC(=O)O)C(=O)O [Asp] | 0.0% | 0.0 | 0% | 0% | 0% | 0.0 |  | 
